# Test results reported in patent publication US4217355A, “Amide therapeutic agents” (Pfizer Inc., priority 1978, dated 1980).
# Test system: murine thymus cells
# Assay: lymphocyte stimulation assay (LSA), in vitro lymphocyte proliferation of murine thymus cells cultured in the presence of Concanavalin A
# Format: cell-based, male C57B1/6 mice
# Settings: in vitro; Con A present; 48 hours at 37° C.; score at drug level with maximum activity
# Source text: On the other hand, the activity of the compounds of the present invention, as immunoregulator agents, is based on a study of their ability to stimulate, in vitro, the lymphocyte proliferation of murine thymus cells cultured in the presence of Concanavalin A (Con A) by employing the general evaluation procedure of V. J. Merluzzi et al., as described in the Journal of Clinical and Experimental Immunology, Vol. 22, p. 486 (1975).
# 486 (1975). The cells were derived from male C57B1/6 mice of from 6-8 weeks age, purchased from the Jackson Laboratories of Bar Harbor, Maine and the Con A was obtained from Sigma Chemicals of St. Louis, Missouri. Each cell culture (consisting of 0.10 ml. thymus cells stock solution, 0.05 ml. of Con A stock solution and 0.05 ml. of drug solution) was performed in quadruplicate and cellular proliferation was measured, after 48 hours of incubation at 37° C., by pulsing each culture with ^3 H-thymidine (0.01 ml. of specific activity 1.9 C/mM, obtained from Schwarz-Mann, Inc. of Orangeburg, N.Y.) and then determining the incorporation of ^3 H-thymidine into cellular desoxyribonucleic acid (DNA) by an assessment of radioactivity using a liquid scintillation counter.
row,Compound,LSA Activity
1,"Cc1csc(NC(=O)C(N)Cc2ccccc2)n1 (stereo not drawn) [X=CH3, R1=C6 H5 CH2, R2=hydrogen, N-(4-methyl-2-thiazolyl)-α-amino-β-phenylpropionamide]","+++ (those having an activity greater than levamisole (27,000±1,000 cpm) were scored as +++)"
2,"CNC(C)C(=O)Nc1nccs1 (stereo not drawn) [X=H, R1=CH3, R2=methyl, N-(2-thiazolyl)-α-methylaminopropionamide]","+++ (those having an activity greater than levamisole (27,000±1,000 cpm) were scored as +++)"
3,"C=CCNCC(=O)Nc1nccs1 [X=H, R1=H, R2=allyl, N-(2-thiazolyl)-α-allylaminoacetamide]","++ (those equal to levamisole (22,000±900 cpm) were scored as ++)"
4,"CC(N)C(=O)Nc1nccs1 (stereo not drawn) [X=H, R1=CH3, R2=hydrogen, N-(2-thiazolyl)-α-aminopropionamide]","+++ (those having an activity greater than levamisole (27,000±1,000 cpm) were scored as +++)"
5,"O=C(CNC1CCCCCCC1)Nc1nccs1 [X=H, R1=H, R2=cyclooctyl, N-(2-thiazolyl)-α-cyclooctylaminoacetamide]","++ (those equal to levamisole (22,000±900 cpm) were scored as ++)"
6,"O=C(CNCC1CCCO1)Nc1nccs1 (stereo not drawn) [X=H, R1=H, R2=2-tetrahydrofurfuryl, N-(2-thiazolyl)-α-(2-tetrahydrofurfurylamino)acetamide]","++ (those equal to levamisole (22,000±900 cpm) were scored as ++)"
7,"O=C(CNCc1ccco1)Nc1nccs1 [X=H, R1=H, R2=2-furfuryl, N-(2-thiazolyl)-α-(2-furfurylamino)acetamide]","++ (those equal to levamisole (22,000±900 cpm) were scored as ++)"
8,"Cc1csc(NC(=O)C2CCCCN2)n1 (stereo not shown) [X=CH3, R=2-piperidyl, N-(4-methyl-2-thiazolyl)piperidine-2-carboxamide]","+++ (those having an activity greater than levamisole (27,000±1,000 cpm) were scored as +++)"
9,"NCC(=O)Nc1nccs1 [X=H, R1=H, R2=hydrogen, N-(2-thiazolyl)-α-aminoacetamide]","++ (those equal to levamisole (22,000±900 cpm) were scored as ++)"
10,"O=C(CNCCc1ccccc1)Nc1nccs1 [X=H, R1=H, R2=β-phenylethyl, N-(2-thiazolyl)-α-(β-phenylethylamino)acetamide]","++ (those equal to levamisole (22,000±900 cpm) were scored as ++)"
11,"Cc1csc(NC(=O)C(N)C(C)C)n1 (stereo not drawn) [X=CH3, R1=iso-C3 H7, R2=hydrogen, N-(4-methyl-2-thiazolyl)-α-aminoisovaleramide]","+++ (those having an activity greater than levamisole (27,000±1,000 cpm) were scored as +++)"
12,"O=C(CNCc1ccc(Cl)cc1)Nc1nccs1 [X=H, R1=H, R2=p-chlorobenzyl, N-(2-thiazolyl)-α-(p-chlorobenzylamino)acetamide]","++ (those equal to levamisole (22,000±900 cpm) were scored as ++)"
13,"O=C(Nc1nccs1)C1CCCN1 (stereo not shown) [X=H, R=2-pyrrolidinyl, N-(2-thiazolyl)pyrrolidine-2-carboxamide]","+++ (those having an activity greater than levamisole (27,000±1,000 cpm) were scored as +++)"
14,"O=C(CNCc1ccc(C(F)(F)F)cc1)Nc1nccs1 [X=H, R1=H, R2=p-trifluoromethylbenzyl]","++ (those equal to levamisole (22,000±900 cpm) were scored as ++)"
15,"Cc1csc(NC(=O)CNCCc2ccccc2)n1 [X=CH3, R1=H, R2=β-phenylethyl, N-(4-methyl-2-thiazolyl)-α-(β-phenylethylamino)acetamide]","+++ (those having an activity greater than levamisole (27,000±1,000 cpm) were scored as +++)"
16,"CNCC(=O)Nc1nccs1 [X=H, R1=H, R2=methyl, N-(2-thiazolyl)-α-methylaminoacetamide]","+++ (those having an activity greater than levamisole (27,000±1,000 cpm) were scored as +++)"
17,"O=C(CNCc1cccs1)Nc1nccs1 [X=H, R1=H, R2=2-thenyl, N-(2-thiazolyl)-α-(2-thenylamino)acetamide]","+++ (those having an activity greater than levamisole (27,000±1,000 cpm) were scored as +++)"
18,"CNCC(=O)Nc1nc(C)cs1 [X=CH3, R1=H, R2=methyl, N-(4-methyl-2-thiazolyl)-α-methylaminoacetamide]","+++ (those having an activity greater than levamisole (27,000±1,000 cpm) were scored as +++)"
19,"Cc1csc(NC(=O)CNCc2ccccc2)n1 [X=CH3, R1=H, R2=benzyl, N-(4-methyl-2-thiazolyl)-α-benzylaminoacetamide]","+++ (those having an activity greater than levamisole (27,000±1,000 cpm) were scored as +++)"
20,"CCNCC(=O)Nc1nccs1 [X=H, R1=H, R2=ethyl, N-(2-thiazolyl)-α-ethylaminoacetamide]","+++ (those having an activity greater than levamisole (27,000±1,000 cpm) were scored as +++)"
21,"CC(C)C(N)C(=O)Nc1nccs1 (stereo not drawn) [X=H, R1=iso-C3 H7, R2=hydrogen, N-(2-thiazolyl)-α-aminoisovaleramide]","++ (those equal to levamisole (22,000±900 cpm) were scored as ++)"
22,"O=C(CNCc1ccc2c(c1)OCO2)Nc1nccs1 [X=H, R1=H, R2=3,4-methylenedioxybenzyl, N-(2-thiazolyl)-α-(3,4-methylenedioxybenzylamino)acetamide]","++ (those equal to levamisole (22,000±900 cpm) were scored as ++)"
23,"CCCCNCC(=O)Nc1nccs1 [X=H, R1=H, R2=n-butyl, N-(2-thiazolyl)-α-(n-butylamino)acetamide]","++ (those equal to levamisole (22,000±900 cpm) were scored as ++)"
24,"COc1ccc(CNCC(=O)Nc2nccs2)cc1 [X=H, R1=H, R2=p-methoxybenzyl, N-(2-thiazolyl)-α-(p-methoxybenzylamino)acetamide]","+++ (those having an activity greater than levamisole (27,000±1,000 cpm) were scored as +++)"
25,"Cc1csc(NC(=O)C(C)N)n1 (stereo not drawn) [X=CH3, R1=CH3, R2=hydrogen, N-(4-methyl-2-thiazolyl)-α-aminopropionamide]","+++ (those having an activity greater than levamisole (27,000±1,000 cpm) were scored as +++)"
26,"O=C(CNCC1CCCCC1)Nc1nccs1 [X=H, R1=H, R2=cyclohexylmethyl, N-(2-thiazolyl)-α-cyclohexylmethylaminoacetamide]","++ (those equal to levamisole (22,000±900 cpm) were scored as ++)"
27,"CCCNCC(=O)Nc1nccs1 [X=H, R1=H, R2=n-propyl, N-(2-thiazolyl)-α-(n-propylamino)acetamide]","++ (those equal to levamisole (22,000±900 cpm) were scored as ++)"
28,"O=C(CNCc1ccc(F)cc1)Nc1nccs1 [X=H, R1=H, R2=p-fluorobenzyl, N-(2-thiazolyl)-α-(p-fluorobenzylamino)acetamide]","+++ (those having an activity greater than levamisole (27,000±1,000 cpm) were scored as +++)"
29,"O=C(Nc1nccs1)C1CCCCN1 (stereo not shown) [X=H, R=2-piperidyl, N-(2-thiazolyl)piperidine-2-carboxamide]","+++ (those having an activity greater than levamisole (27,000±1,000 cpm) were scored as +++)"
30,"Cc1ccc(CNCC(=O)Nc2nccs2)cc1 [X=H, R1=H, R2=p-methylbenzyl, N-(2-thiazolyl)-α-(p-methylbenzylamino)acetamide]","+ (those superior to Con A activity but less than levamisole (10,000±700 cpm) were scored as +)"

# Same assay, conditions: standard compound; Con A present; 48 hours at 37° C.
row,Compound,3H-thymidine incorporated (average counts per minute)
1,"c1ccc([C@H]2CN3CCSC3=N2)cc1 [levamisole, reference compound]","22,000±900 cpm"

# Test system: carrageenin-induced edema in the hind paw
# Assay: carrageenin-induced rat food edema test (inhibition of edema formation in the hind paw)
# Format: in vivo, male albino rats
# Settings: rat, oral, 1.0 mg./kg.
# Description: A. Winter et al., Proc. Soc. Exp. Biol. Med., Vol. 111, p.
# A. Winter et al., as earlier reported in the Proceedings of the Society of Experimental Biology and Medicine, Vol. 111, p. 544 (1962). In this test, anti-inflammatory activity is determined as the percent inhibition of edema formation in the hind paw of male albino rats (weighing 150-190 g.) in response to a sub-plantar injection of carrageenin. The carrageenin is injected as a 1% aqueous suspension (0.05 ml.) one hour after oral administration of the drug, which is normally given in the form of an aqueous solution. Edema formation is then assessed three hours after the carrageenin injection by measuring the volume of the injected paw initially as well as at the three-hour mark. The increase in volume three hours after carrageenin injection constitutes the individual response.
# The following N-(2-thiazolyl)amides were tested for anti-inflammatory activity in rats, using the standard carrageen-ininduced rat food edema test, according to the procedure essentially described by C. A. Winter et al., as first reported in the Proceedings of the Society for Experimental Biology and Medicine, Vol. 111, p. 544 (1962). […]
row,Compound,% Inhibition of edema formation (swelling) [%]
1,Cl.O=C(CNCc1ccccc1)Nc1nccs1 [N-(2-thiazolyl)-α-benzylaminoacetamide hydrochloride],35

# Same assay, conditions: rat, oral, 3.3 mg./kg.
row,Compound,% Inhibition of edema formation [%]
1,Cl.O=C(CNCc1ccccc1)Nc1nccs1 [N-(2-thiazolyl)-α-benzylaminoacetamide hydrochloride],47

# Same assay, conditions: rat, oral, 10 mg./kg.
row,Compound,% Inhibition of edema formation [%]
1,Cl.O=C(CNCc1ccccc1)Nc1nccs1 [N-(2-thiazolyl)-α-benzylaminoacetamide hydrochloride],54

# Same assay, conditions: rat, oral, 33 mg./kg., three hours after carrageenin injection
row,Compound,% Inhibition of edema formation [%]
1,"O=C(CNCCc1ccccc1)Nc1nccs1 [X=H, R1=H, R2=β-phenylethyl, N-(2-thiazolyl)-α-(β-phenylethylamino)acetamide]",53
2,"O=C(Nc1nccs1)C1CCCN1 (stereo not shown) [X=H, R=2-pyrrolidinyl, N-(2-thiazolyl)pyrrolidine-2-carboxamide]",48
3,"CNCC(=O)Nc1nccs1 [X=H, R1=H, R2=methyl, N-(2-thiazolyl)-α-methylaminoacetamide]",54
4,"CNCC(=O)Nc1nc(C)cs1 [X=CH3, R1=H, R2=methyl, N-(4-methyl-2-thiazolyl)-α-methylaminoacetamide]",53
5,"O=C(CNCc1ccc(F)cc1)Nc1nccs1 [X=H, R1=H, R2=p-fluorobenzyl, N-(2-thiazolyl)-α-(p-fluorobenzylamino)acetamide]",48
6,"O=C(Nc1nccs1)C1CCCCN1 (stereo not shown) [X=H, R=2-piperidyl, N-(2-thiazolyl)piperidine-2-carboxamide]",55
